Assay results published in ChEMBL document CHEMBL3526058, “Investigating the enteroenteric recirculation of apixaban, a factor Xa inhibitor: administration of activated charcoal to bile duct-cannulated rats and dogs receiving an intravenous dose and use of drug transporter knockout rats” (Drug Metab Dispos, 2013).

Tests used:
[1] = Cmax in Sprague-Dawley rat at 4 mg/kg, po administered 1 hr post GF-120918 treatment; format: ADME, organism-based; design: dose 4 mg/kg, route oral; conditions: in vivo, with GF-120918
[2] = Half life in Sprague-Dawley rat at 4 mg/kg, po administered 1 hr post GF-120918 treatment; format: ADME, organism-based; design: dose 4 mg/kg, route oral; conditions: in vivo, with GF-120918
[3] = Apparent oral clearance in Sprague-Dawley rat at 4 mg/kg, po administered 1 hr post GF-120918 treatment; format: ADME, organism-based; design: dose 4 mg/kg, route oral; conditions: in vivo, with GF-120918
[4] = Oral steady-state volume of distribution in Sprague-Dawley rat at 4 mg/kg administered 1 hr post GF-120918 treatment; format: ADME, organism-based; design: dose 4 mg/kg; conditions: in vivo, with GF-120918, read-out: Vss/F
[5] = Mean residence time in Sprague-Dawley rat at 4 mg/kg, po administered 1 hr post GF-120918 treatment; format: ADME, organism-based; design: dose 4 mg/kg, route oral; conditions: in vivo, with GF-120918
[6] = Oral bioavailability in Sprague-Dawley rat at 4 mg/kg administered 1 hr post GF-120918 treatment; format: ADME, organism-based; conditions: in vivo, with GF-120918
[7] = AUC (0 to 24 hrs) in beagle dog at 5 mg/kg, po; format: ADME, organism-based, Canis lupus familiaris; design: time < 24 hr, dose 5 mg/kg, route oral; conditions: plasma
[8] = Cmax in beagle dog at 5 mg/kg, po; format: ADME, organism-based, Canis lupus familiaris; design: dose 5 mg/kg, route oral; conditions: in vivo
[9] = Plasma concentration in beagle dog at 5 mg/kg, po at 8 hrs; format: ADME, organism-based, Canis lupus familiaris; design: dose 5 mg/kg, route oral
[10] = Half life in beagle dog at 5 mg/kg, po; format: ADME, organism-based, Canis lupus familiaris; design: dose 5 mg/kg, route oral; conditions: in vivo
[11] = Apparent oral clearance in beagle dog at 5 mg/kg, po; format: ADME, organism-based, Canis lupus familiaris; design: dose 5 mg/kg, route oral; conditions: in vivo
[12] = Oral steady-state volume of distribution in beagle dog at 5 mg/kg; format: ADME, organism-based, Canis lupus familiaris; design: dose 5 mg/kg; conditions: in vivo, read-out: Vss/F
[13] = Mean residence time in beagle dog at 5 mg/kg, po; format: ADME, organism-based, Canis lupus familiaris; design: dose 5 mg/kg, route oral; conditions: in vivo
[14] = Oral bioavailability in beagle dog at 5 mg/kg; format: ADME, organism-based, Canis lupus familiaris; conditions: in vivo
[15] = AUC (0 to 24 hrs) in beagle dog at 5 mg/kg, po followed by activated charcoal administration 0.25 hrs post compound dosing; format: ADME, organism-based, Canis lupus familiaris; design: time < 24 hr, dose 5 mg/kg, route oral; conditions: plasma
[16] = Cmax in beagle dog at 5 mg/kg, po followed by activated charcoal administration 0.25 hrs post compound dosing; format: ADME, organism-based, Canis lupus familiaris; design: dose 5 mg/kg, route oral; conditions: in vivo
[17] = Plasma concentration in beagle dog at 5 mg/kg, po followed by activated charcoal administration 0.25 hrs post compound dosing measured at 8 hrs; format: ADME, organism-based, Canis lupus familiaris; design: dose 5 mg/kg, route oral
[18] = Half life in beagle dog at 5 mg/kg, po followed by activated charcoal administration 0.25 hrs post compound dosing; format: ADME, organism-based, Canis lupus familiaris; design: dose 5 mg/kg, route oral; conditions: in vivo
[19] = Apparent oral clearance in beagle dog at 5 mg/kg, po followed by activated charcoal administration 0.25 hrs post compound dosing; format: ADME, organism-based, Canis lupus familiaris; design: dose 5 mg/kg, route oral; conditions: in vivo
[20] = Oral steady-state volume of distribution in beagle dog at 5 mg/kg followed by activated charcoal administration 0.25 hrs post compound dosing; format: ADME, organism-based, Canis lupus familiaris; design: dose 5 mg/kg; conditions: in vivo, read-out: Vss/F
[21] = Mean residence time in beagle dog at 5 mg/kg, po followed by activated charcoal administration 0.25 hrs post compound dosing; format: ADME, organism-based, Canis lupus familiaris; design: dose 5 mg/kg, route oral; conditions: in vivo
[22] = Oral bioavailability in beagle dog at 5 mg/kg followed by activated charcoal administration 0.25 hrs post compound dosing; format: ADME, organism-based, Canis lupus familiaris; conditions: in vivo
[23] = AUC (0 to 24 hrs) in beagle dog at 5 mg/kg, po followed by activated charcoal administration 1 hr post compound dosing; format: ADME, organism-based, Canis lupus familiaris; design: time < 24 hr, dose 5 mg/kg, route oral; conditions: plasma
[24] = Cmax in beagle dog at 5 mg/kg, po followed by activated charcoal administration 1 hr post compound dosing; format: ADME, organism-based, Canis lupus familiaris; design: dose 5 mg/kg, route oral; conditions: in vivo
[25] = Plasma concentration in beagle dog at 5 mg/kg, po followed by activated charcoal administration 1 hr post compound dosing measured at 8 hrs; format: ADME, organism-based, Canis lupus familiaris; design: dose 5 mg/kg, route oral
[26] = Half life in beagle dog at 5 mg/kg, po followed by activated charcoal administration 1 hr post compound dosing; format: ADME, organism-based, Canis lupus familiaris; design: dose 5 mg/kg, route oral; conditions: in vivo
[27] = Apparent oral clearance in beagle dog at 5 mg/kg, po followed by activated charcoal administration 1 hr post compound dosing; format: ADME, organism-based, Canis lupus familiaris; design: dose 5 mg/kg, route oral; conditions: in vivo
[28] = Oral steady-state volume of distribution in beagle dog at 5 mg/kg followed by activated charcoal administration 1 hr post compound dosing; format: ADME, organism-based, Canis lupus familiaris; design: dose 5 mg/kg; conditions: in vivo, read-out: Vss/F
[29] = Mean residence time in beagle dog at 5 mg/kg, po followed by activated charcoal administration 1 hr post compound dosing; format: ADME, organism-based, Canis lupus familiaris; design: dose 5 mg/kg, route oral; conditions: in vivo
[30] = Oral bioavailability in beagle dog at 5 mg/kg followed by activated charcoal administration 1 hr post compound dosing; format: ADME, organism-based, Canis lupus familiaris; conditions: in vivo
[31] = AUC (0 to 24 hrs) in beagle dog at 5 mg/kg, po followed by activated charcoal administration 3 hrs post compound dosing; format: ADME, organism-based, Canis lupus familiaris; design: time < 24 hr, dose 5 mg/kg, route oral; conditions: plasma
[32] = Cmax in beagle dog at 5 mg/kg, po followed by activated charcoal administration 3 hrs post compound dosing; format: ADME, organism-based, Canis lupus familiaris; design: dose 5 mg/kg, route oral; conditions: in vivo
[33] = Plasma concentration in beagle dog at 5 mg/kg, po followed by activated charcoal administration 3 hrs post compound dosing measured at 8 hrs; format: ADME, organism-based, Canis lupus familiaris; design: dose 5 mg/kg, route oral

## COc1ccc(-n2nc(C(N)=O)c3c2C(=O)N(c2ccc(N4CCCCC4=O)cc2)CC3)cc1
[1]
  Cmax: 2870 ng/mL
[2]
  half-life: 1.6 h
[3]
  CL/F: 5 mL/min/kg
[4]
  Vd/F: 0.7 L/kg
[5]
  MRT: 2.1 h
[6]
  bioavailability: 140%
[7]
  AUC(0-t) at 24 h: 78600 ng·h/mL
[8]
  Cmax: 9350 ng/mL
[9]
  concentration at 8 h: 5230 ng/mL
[10]
  half-life: 5.7 h
[11]
  CL/F: 1 mL/min/kg
[12]
  Vd/F: 0.5 L/kg
[13]
  MRT: 8.5 h
[14]
  bioavailability: 93%
[15]
  AUC(0-t) at 24 h: 59500 ng·h/mL
[16]
  Cmax: 8420 ng/mL
[17]
  concentration at 8 h: 2820 ng/mL
[18]
  half-life: 4.2 h
[19]
  CL/F: 1.37 mL/min/kg
[20]
  Vd/F: 0.5 L/kg
[21]
  MRT: 6.4 h
[22]
  bioavailability: 92%
[23]
  AUC(0-t) at 24 h: 63900 ng·h/mL
[24]
  Cmax: 8990 ng/mL
[25]
  concentration at 8 h: 3380 ng/mL
[26]
  half-life: 4 h
[27]
  CL/F: 1.28 mL/min/kg
[28]
  Vd/F: 0.5 L/kg
[29]
  MRT: 5.9 h
[30]
  bioavailability: 99%
[31]
  AUC(0-t) at 24 h: 49200 ng·h/mL
[32]
  Cmax: 8070 ng/mL
[33]
  concentration at 8 h: 2190 ng/mL
